Source: the supplement of paper PMC7394473

Experiments:
Conditions in all cases: 72 h
U2OS [1] = test: FV IC50 (concentration giving fractional viability 0.5); higher = less potent killing
Description: (§1)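 U2OS cells treated with full dose titrations of drug; live and dead cells counted by STACK microscopy (mKate2 nuclei, SYTOX Green) at 72 h, biological triplicates. GR and FV dose responses were fitted with 4-parameter logistic models (GR lower bound -1). GRADE (0-100) is the rescaled angle of a linear fit of FV versus GR at doses with GR >= 0, giving the percentage of the response due to cell death.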

U2OS [2] = test: drug GRADE (percent of response due to cell death) (% (0-100)); higher = more death-driven response
Description: as §1

U2OS [3] = test: GRmin (fitted minimal GR value at highest effect) (GR value (dimensionless)); higher = less efficacious
Description: as §1

U2OS [4] = test: normalized growth rate inhibition value (GR) relative to untreated cells (GR value (dimensionless, 1 = untreated growth)); higher = less growth inhibition
Description: (§2)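 U2OS::Nuc-mKate2 cells seeded in 96-well plates and treated with eight- to ten-point half-log or log dilutions of drug in the presence of 50 nM SYTOX Green. Live (mKate2+) and dead (SYTOX+) cells were counted by IncuCyte STACK live-cell microscopy at 72 h; biological triplicates. GR is the normalised growth-rate inhibition value (Hafner 2016; 1 = untreated growth, <0 = population shrinking). FV is live/(live+dead) cells, not normalised.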

U2OS [5] = test: fractional viability (live cells / total cells); higher = less cell death
Description: as §2

U2OS [6] = test: GR50 (concentration giving GR = 0.5)
Description: as §1

COC(=O)c1ccc2c(c1)NC(=O)/C2=C(\Nc1ccc(N(C)C(=O)CN2CCN(C)CC2)cc1)c1ccccc1 [Bibf-1120]
Conditions | FV IC50 [nM] | GR50 [µM] | GRmin | drug GRADE
U2OS [1] | 1480 | – | – | –
U2OS [2] | – | – | – | 50.6
U2OS [3] | – | – | -0.805 | –
U2OS [6] | – | 0.845 | – | –

Conditions | fractional viability, U2OS [5] | normalized growth rate inhibition value, U2OS [4]
0.01 µM | 0.981 | 1.08
0.0316 µM | 0.975 | 1.04
0.1 µM | 0.974 | 0.935
0.316 µM | 0.947 | 0.813
1 µM | 0.758 | 0.427
3.16 µM | 0.092 | -0.468
10 µM | 0.00465 | -0.767
31.6 µM | 0.00201 | -0.767

CC(C)C[C@H](NC(=O)[C@H](Cc1ccccc1)NC(=O)c1cnccn1)B(O)O [Bortezomib]
Conditions | FV IC50 [nM] | GR50 [µM] | GRmin | drug GRADE
U2OS [1] | 29.4 | – | – | –
U2OS [2] | – | – | – | 17.4
U2OS [3] | – | – | -0.899 | –
U2OS [6] | – | 0.0115 | – | –

Conditions | fractional viability, U2OS [5] | normalized growth rate inhibition value, U2OS [4]
0.01 µM | 0.919 | 0.572
0.0316 µM | 0.432 | -0.293
0.1 µM | 0.00995 | -0.811
0.316 µM | 0.00177 | -0.912
1 µM | 0.00348 | -0.874
3.16 µM | 0.00249 | -0.887
10 µM | 0.00121 | -0.913
31.6 µM | 0.000942 | -0.902

Nc1cc(C(F)(F)F)c(-c2cc(N3CCOCC3)nc(N3CCOCC3)n2)cn1 [Buparlisib]
Conditions | FV IC50 [nM] | GR50 [µM] | GRmin | drug GRADE
U2OS [1] | 4100 | – | – | –
U2OS [2] | – | – | – | 15.2
U2OS [3] | – | – | -0.554 | –
U2OS [6] | – | 0.439 | – | –

Conditions | fractional viability, U2OS [5] | normalized growth rate inhibition value, U2OS [4]
0.00100578 µM | 0.986 | 0.914
0.00317827 µM | 0.984 | 0.956
0.0100433 µM | 0.986 | 0.959
0.0317369 µM | 0.986 | 0.899
0.100289 µM | 0.985 | 0.77
0.316912 µM | 0.976 | 0.704
1.00144 µM | 0.868 | 0.0802
3.16456 µM | 0.558 | -0.224
10 µM | 0.404 | -0.493

CC[C@@]1(O)C(=O)OCc2c1cc1n(c2=O)Cc2cc3ccccc3nc2-1 [Camptothecin]
Conditions | FV IC50 [nM] | GR50 [µM] | GRmin | drug GRADE
U2OS [1] | 761 | – | – | –
U2OS [2] | – | – | – | 25.1
U2OS [3] | – | – | -0.368 | –
U2OS [6] | – | 0.00513 | – | –

Conditions | fractional viability, U2OS [5] | normalized growth rate inhibition value, U2OS [4]
0.001 µM | 0.969 | 0.83
0.00316 µM | 0.949 | 0.651
0.01 µM | 0.91 | 0.219
0.0316 µM | 0.898 | 0.0844
0.1 µM | 0.869 | 0.0979
0.316 µM | 0.661 | -0.0587
1 µM | 0.448 | -0.211
3.16 µM | 0.213 | -0.411

Cc1cc(Nc2ncc(Cl)c(Nc3ccccc3S(=O)(=O)C(C)C)n2)c(OC(C)C)cc1C1CCNCC1 [Ceritinib]
Conditions | FV IC50 [nM] | GR50 [µM] | drug GRADE
U2OS [1] | 5270 | – | –
U2OS [2] | – | – | 7.14
U2OS [6] | – | 3.32 | –

Conditions | fractional viability, U2OS [5] | normalized growth rate inhibition value, U2OS [4]
0.00100578 µM | 0.991 | 1.05
0.00317827 µM | 0.989 | 1.06
0.0100433 µM | 0.992 | 1.15
0.0317369 µM | 0.988 | 1.13
0.100289 µM | 0.989 | 1.02
0.316912 µM | 0.984 | 0.964
1.00144 µM | 0.98 | 0.904
3.16456 µM | 0.943 | 0.588
10 µM | 0 | -1

CCc1cnn2c(NCc3ccc[n+]([O-])c3)cc(N3CCCC[C@H]3CCO)nc12 [Dinaciclib]
Conditions | FV IC50 [nM] | GR50 [µM] | GRmin | drug GRADE
U2OS [1] | 8.07 | – | – | –
U2OS [2] | – | – | – | 3.29
U2OS [3] | – | – | -0.376 | –
U2OS [6] | – | 0.00437 | – | –

Conditions | fractional viability, U2OS [5] | normalized growth rate inhibition value, U2OS [4]
0.000100578 µM | 0.986 | 0.892
0.000317827 µM | 0.983 | 0.802
0.00100433 µM | 0.984 | 0.876
0.00317369 µM | 0.972 | 0.756
0.0100289 µM | 0.41 | -0.288
0.0316912 µM | 0.32 | -0.406
0.100144 µM | 0.339 | -0.368
0.316456 µM | 0.35 | -0.358
1 µM | 0.406 | -0.373

CC(=O)O[C@@]12CO[C@@H]1C[C@H](O)[C@@]1(C)C(=O)[C@H](O)C3=C(C)[C@@H](OC(=O)[C@H](O)[C@@H](NC(=O)OC(C)(C)C)c4ccccc4)C[C@@](O)([C@@H](OC(=O)c4ccccc4)[C@H]21)C3(C)C [Docetaxel]
Conditions | FV IC50 [nM] | GR50 [µM] | GRmin | drug GRADE
U2OS [1] | 4.77 | – | – | –
U2OS [2] | – | – | – | 69.6
U2OS [3] | – | – | -0.193 | –
U2OS [6] | – | 0.000853 | – | –

Conditions | fractional viability, U2OS [5] | normalized growth rate inhibition value, U2OS [4]
0.00100578 µM | 0.707 | 0.339
0.00317827 µM | 0.588 | 0.223
0.0100433 µM | 0.41 | 0.0565
0.0317369 µM | 0.413 | -0.0266
0.100289 µM | 0.323 | -0.14
0.316912 µM | 0.351 | -0.174
1.00144 µM | 0.252 | -0.245
3.16456 µM | 0.238 | -0.251
10 µM | 0.255 | -0.164

COc1cccc2c1C(=O)c1c(O)c3c(c(O)c1C2=O)C[C@@](O)(C(=O)CO)C[C@@H]3O[C@H]1C[C@H](N)[C@H](O)[C@H](C)O1 [Doxorubicin]
Conditions | FV IC50 [nM] | GR50 [µM] | GRmin | drug GRADE
U2OS [1] | 2590 | – | – | –
U2OS [2] | – | – | – | 3.78
U2OS [3] | – | – | -0.576 | –
U2OS [6] | – | 0.0332 | – | –

Conditions | fractional viability, U2OS [5] | normalized growth rate inhibition value, U2OS [4]
0.00100578 µM | 0.987 | 0.879
0.00317827 µM | 0.99 | 1.06
0.0100433 µM | 0.989 | 0.832
0.0317369 µM | 0.971 | 0.368
0.100289 µM | 0.967 | 0.0816
0.316912 µM | 0.978 | 0.0197
1.00144 µM | 0.851 | -0.0749
3.16456 µM | 0.113 | -0.501
10 µM | 0 | -1
